Measured values as given in patent US10349662B2, “Insecticidal compositions and methods of using the same” (priority 2011, dated 2019).
Converted amounts (≈) assume the structure as drawn. “And” between values parts separate entries of the source, which are not always exact repeats. Equal values may be shown once. Read-outs that look alike come from different tables or passages of the source.

Tests used:
[1] = cited from earlier work
[2] = test system: Culex quinquefasciatus mosquitoes; assay: Topical bioassay on adult female Culex quinquefasciatus mosquitoes (knockdown 1 h, mortality 24 h; Colby calculation for combinations); assay type: in vivo
Cytochrome P450 enzyme = assay: P450 activity assay (7-ethoxycoumarin, fluorescence); assay type: biochemical, A. aegypti; settings: FIG. 2; for inhibition of P450 activity: added to the assay
Method: Cytochrome P450 enzyme solution was prepared by homogenizing 15, 3 to 5 day old, A. aegypti females and centrifuging the mixture at 10,000 g for 1 minute. The pellet was discarded, and the supernatant was used as the P450 enzyme stock solution. 10 μL of this P450 enzyme stock and 90 μL of 7-ethoxycoumarin solution (0.526 mM of 7-ethoxycoumarin, 1.11 mM NADPH, 0.05 mM phosphate buffer) was added to each well of the micropipette plate to begin the reaction. During the reaction, the micropipette plate was covered with aluminum foil to prevent photo-bleaching. The reaction was incubated at 30° C. for 4 hours. The reaction was stopped by adding 30 μL of stop solution (0.1 mM glycine, pH 10.4, 50% ethanol). The micropipette plate was then analyzed by measuring the fluorescence (Emission=460 nm, Excitation=360 nm) of each well. High fluorescence was directly related to product, and thus indicated a high level of P450 activity.

Aedes aegypti mosquitoes = assay: Topical bioassay on adult female Aedes aegypti mosquitoes (knockdown 1 h, mortality 24 h; Colby calculation for combinations); assay type: in vivo
Excerpt: Components of a composition can have a synergistic or additive effect on insecticidal activity. Components have an additive effect when the effect of the combination is equal to the sum of the effects of each individual component. In contrast, components have a synergistic effect when the effect of the combination exceeds the sum of the effects of the components when applied individually. The effect (E) of a combination of two compounds may be calculated using the Colby formula (1) (S. R. Colby, “Calculating Synergistic and Antagonistic Responses of Herbicide Combinations”, Weeds 1967, 15, 20-22):
If the actual insecticidal kill rate is the calculated value (E), then the action of the combination is additive. If the actual insecticidal kill rate exceeds the calculated value (E), then the action of the combination is super-additive, that is, a synergistic effect is present. If the insecticidal kill rate is lower than the calculated value (E), then the action of the combination is considered antagonistic.
Adult female Aedes aegypti mosquitoes were segregated in 18″×18″ screen cages based on date of eclosion, therefore the exact age of the mosquitoes were known for bioassays.
Ten female mosquitoes, aged four to six days after eclosion, were aspirated out of their respective cage and into a small glass jar. The mosquitoes were then anesthetized with CO2 gas for 30 seconds. After the adults were anesthetized, they were quickly placed on a plastic platform for treatment application. Treatments were serially diluted (using a BrandTech Scientific Transferpette S pipette (100-1000 μL), labeled centrifuge tubes, and a vortex mixer) from stocks of insecticides using reagent grade acetone as the diluent to concentrations as indicated for each treatment solution. A treatment solution may contain additional ingredients as indicated for each study.
Using a Hamilton PB00-1 Repeating Dispenser with a Hamilton 25 Microliter Syringe, 0.5 μL of each treatment solution was applied to the thorax of each mosquito. Immediately following the application of the treatment, the mosquitoes were gently transferred into a clean paper cup and covered with screen. The mesh screen prevented the mosquitoes from escaping and allowed the specimens to be viewed for ratings. A cotton ball soaked with 10% sucrose solution was inserted into a side hole of each cup for hydration and nourishment. Each treatment variable in the study was replicated three times using separate cups for each replication.
The untreated controls treatments were anesthetized for 30 seconds and gently transferred to the paper cups. The acetone treated control was treated exactly as described above except that the solution applied to each mosquito was undiluted acetone.
The condition of the mosquitoes in each cup was recorded at one hour and 24 hours after initial treatment. The condition classifications used were (1) alive and flying, (2) alive and unable to fly, or (3) dead. The percent mortality for each treatment was calculated by summing the mortalities of each replicate then calculating the percent dead from the total number of mosquitoes.
Where indicated, the mortality data were subjected to probit analysis using the Statistical Analysis System Version 9.1 program PROC PROBIT (SAS Institute (2003) PROC user's manual, version 9.1. SAS Institute, Cary, N.C.).

SMILES: C=C1/C=C/[C@H](C(C)C)CC/C(C)=C/CC1 [Germacrene D]
- Vapor Pressure (@ 25° C.) [1]: 0.023 mmHg
- Solubility (in water @ 25° C.) [1]: 0.013 µg/mL (≈ 0.0636 µM)

SMILES: C=C1CC[C@H]2O[C@]2(C)CC[C@@H]2[C@@H]1CC2(C)C [Caryophyllene Oxide-Beta]
- Vapor Pressure (@ 25° C.) [1]: 0.01 mmHg
- Solubility (in water @ 25° C.) [1]: 2.21 µg/mL (≈ 10 µM)

SMILES: CC1=CCC2CC1C2(C)C (stereo not drawn) [Pinene Alpha]
- Vapor Pressure (@ 25° C.) [1]: 4.75 mmHg

SMILES: C=C(C)C1CC=C(CO)CC1 (racemic) [Pennyl Alcohol (racemic)]
- Vapor Pressure (@ 25° C.) [1]: 0.00478 mmHg
- Solubility (in water @ 25° C.) [1]: 471 µg/mL (≈ 3090 µM)

SMILES: C=C(C)C1CC=C(C=O)CC1 (stereo not drawn) [Perillaldehyde, perillaldehyde]
- 1 hour knockdown ([2]; 2%): 33%
- % MORTALITY AFTER 24 HRS ([2]; 2%): 13%
- % MORTALITY AFTER 24 HRS ([2]; 3%): 13%
- inhibition of P450 activity (Cytochrome P450 enzyme): acted as inhibitors
- inhibition of P450 activity relative to PBO (Cytochrome P450 enzyme; perillaldehyde at 1% vs PBO at 2%): as potent an inhibitor of P450 as PBO at 2%
- inhibition of P450 activity relative to PBO (Cytochrome P450 enzyme; perillaldehyde at 10% vs PBO at 2%): a more potent inhibitor of P450 than PBO at 2%
- 1 hour knockdown (Aedes aegypti mosquitoes; 3%): 53%
- mortality at 1 % (Aedes aegypti mosquitoes; Aedes aegypti, topical, 24 h, read-out: % MORTALITY AFTER 24 HRS, 1%): 3%
- mortality at 1 % (Aedes aegypti mosquitoes; Aedes aegypti, topical, 24 h, read-out: % MORTALITY AFTER 24 HRS, single active, 1%): 0%
- mortality at 3 % (Aedes aegypti mosquitoes; Aedes aegypti, topical, 24 h, read-out: % MORTALITY AFTER 24 HRS, single active, 3%): 73%
- Vapor Pressure (@ 25° C.) [1]: 0.0463 mmHg
- Solubility (in water @ 25° C.) [1]: 160.7 µg/mL (≈ 1070 µM)

SMILES: CC(C)=CCC[C@]1(C)[C@H]2CC=C(C)[C@@H]1C2 (relative stereo) [Bergamotene Trans Alpha]
- Vapor Pressure (@ 25° C.) [1]: 0.028 mmHg
- Solubility (in water @ 25° C.) [1]: 0.030 µg/mL (≈ 0.147 µM)

SMILES: CN/C(=N/CC1CCOC1)N[N+](=O)[O-] (stereo not drawn) [Dinotefuran, dinotefuran, reference compound]
- 1 hour knockdown ([2]; 0.008 μg/mosquito): 10%
- % MORTALITY AFTER 24 HRS ([2]; 0.008 μg/mosquito): 77% and 73%
- 1 hour knockdown (Aedes aegypti mosquitoes; 0.004 μg/mosquito): 0%
- % MORTALITY AFTER 24 HRS (Aedes aegypti mosquitoes; 0.004 μg/mosquito): 0%
- 1 hour knockdown (Aedes aegypti mosquitoes; 0.006 μg/mosquito): 0% and 3%
- mortality at 0.004 µg/mosquito (Aedes aegypti mosquitoes; Aedes aegypti, topical, 24 h, read-out: % MORTALITY AFTER 24 HRS, 0.004 μg/mosquito): 0%
- LD50 (Aedes aegypti mosquitoes; topical application, adult Aedes aegypti): 0.06 μg/mosquito

SMILES: CCCCOCCOCCOCc1cc2c(cc1CCC)OCO2 [PBO, piperonyl butoxide, reference compound]
- inhibition of P450 activity (Cytochrome P450 enzyme): acted as inhibitors

SMILES: C=C(C)[C@H]1CC=C(C)CC1 [D-limonene]
- Vapor Pressure (@ 25° C.) [1]: 1.541 mmHg

SMILES: C=C1CC[C@@H]2[C@H]([C@H]3[C@H]1CC[C@]3(C)O)C2(C)C [Spathulenol]
- Vapor Pressure (@ 25° C.) [1]: 1.2 × 10^−4 mmHg
- Solubility (in water @ 25° C.) [1]: 12.4 µg/mL (≈ 56.3 µM)

SMILES: C=C1CC/C=C(\C)CC[C@@H]2[C@@H]1CC2(C)C [β-Caryophyllene]
- 1 hour knockdown (Aedes aegypti mosquitoes; 1%): 0%
- % MORTALITY AFTER 24 HRS (Aedes aegypti mosquitoes; 1%): 0%
- % MORTALITY AFTER 24 HRS (Aedes aegypti mosquitoes; 3%): 0%
- % MORTALITY AFTER 24 HRS (Aedes aegypti mosquitoes; 3%, listed as β-CARYOPHYLLENE): 77%
- 1 hour knockdown (Aedes aegypti mosquitoes; 5%): 10%
- % MORTALITY AFTER 24 HRS (Aedes aegypti mosquitoes; 5%): 17%
- 1 hour knockdown (Aedes aegypti mosquitoes; 10%): 57%
- % MORTALITY AFTER 24 HRS (Aedes aegypti mosquitoes; 10%): 40%
- 1 hour knockdown (Aedes aegypti mosquitoes; 20%): 93%
- % MORTALITY AFTER 24 HRS (Aedes aegypti mosquitoes; 20%): 83%
- % MORTALITY AFTER 24 HRS (Aedes aegypti mosquitoes; single active, 3%): 7% and 10%
- Vapor Pressure (@ 25° C.) [1]: 0.031 mmHg
- Solubility (in water @ 25° C.) [1]: 0.05 µg/mL (≈ 0.245 µM)
